The values below come from patent US8865750B2, “Small molecule inhibitors of RGS proteins” (The Regents of The University of Michigan, priority 2011, dated 2014).

The target in one data set is RGS8 (Homo sapiens (Human), UniProt P57771). In words: FCPIA: Gαo binding to RGS8. An excerpt:
FCPIA Dose Response and Reversibility Experiments:

Another data set relates to δ-opioid receptor. Briefly: cAMP accumulation in SH-SY5Y cells, SNC80. It is filed as cell-based. As to the method:
Accumulated cAMP was measured by radioimmunoassay in a 10-15 μl aliquot of the supernatant from each sample following the manufacturer's instructions (cAMP radioimmunoassay kit from GE Healthcare, Piscataway, N.J.). Data are from four separate experiments, each carried out in duplicates and calculated as percent inhibition.
Cells were plated into 24-well plates to reach ˜90% confluency on the day of assay and washed once with fresh serum-free medium. […] Accumulated cAMP was measured by radioimmunoassay in a 10-15 μl aliquot of the supernatant from each sample following the manufacturer's instructions (cAMP radioimmunoassay kit from GE Healthcare, Piscataway, N.J.). Data are from four separate experiments, each carried out in duplicates and calculated as percent inhibition.

The next data set deals with 160C RGS8 (C107S) (Homo sapiens (Human), UniProt P57771, C107S). In words: FCPIA: RGS8 mutant 160C. It counts as binding. On the procedure: (§1) With the exception of RGS8 mutants, all RGS and G proteins were prepared as previously described (Roman, D., et al., Mol Pharmacol). […] Mutagenesis was performed using the QuickChange Multi-site Directed Mutagenesis kit (Agilent, La Jolla Calif.).
160C RGS8 (C107S), sequence (P57771 other isoform, or with tags, fused parts or gaps C107S): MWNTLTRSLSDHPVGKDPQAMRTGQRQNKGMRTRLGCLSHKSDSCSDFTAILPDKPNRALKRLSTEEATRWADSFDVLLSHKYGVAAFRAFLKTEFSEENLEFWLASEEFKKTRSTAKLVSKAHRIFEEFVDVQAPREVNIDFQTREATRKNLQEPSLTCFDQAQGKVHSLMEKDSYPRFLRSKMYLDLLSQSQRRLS
(§2) This protein only contains two cysteines in the RGS homology domain, making it a simpler model system to study than other RGS proteins. Each cysteine from the RGS8 RGS homology (RH) domain was individually mutated to serine and the activity of the compound was analyzed via FCPIA (FIG. 6).

The subject of another data set is HEK-293 cells. Briefly: WST-1 cell viability. It counts as cell-based. Particulars: up to 100 μM, overnight. On the procedure:
WST-1 Cell Viability Studies:
HEK-293 cells were plated to a density of 30,000/well in 96-well plates and grown for 48 hours in Dulbecco's Modified Eagle Medium (DMEM) containing 10% fetal bovine serum and Penicillin (100 units/ml)-Streptomycin (100 μg/ml) under 5% CO2 at 37° C. Compound treatment was performed overnight in DMEM containing 0.1% bovine serum albumin under 5% CO2 at 37° C. After compound incubation ten microliters of the WST-1 reagent (Hoffmann-La Roche, Switzerland) was added to every well and the cells were incubated for 1 hour under 5% CO2 at 37° C. Absorbance was measured at 450 nm using a Victor II plate reader (Perkin-Elmer, Picastaway, N.J.).

The next data set concerns the target 107C RGS8 (C160S) (Homo sapiens (Human), UniProt P57771, C160S). Briefly: FCPIA: RGS8 mutant 107C. It counts as binding. As to the method:
as §1, §2

A further data set is described as follows: Solubility experiments. Particulars: water; aqueous. It is filed as physicochemical. As to the method:
Compounds were diluted to 100 mM in DMSO and the further diluted to 500 μM in H2O, vortexed and centrifuged for 10 minutes at 13,000×g at ambient temperature.

As usually defined, the IC50 is the concentration that inhibits the measured activity by half. For orientation: Ki means the dissociation constant of the complex between target and ligand, obtained from inhibition or displacement. Usually inhibition stands for the percentage by which the read-out fell short of the control. By solubility is commonly meant the concentration that dissolves in the medium under given conditions.

In brackets after ≈: the same amount, converted by molar mass.

RGS8, sequence (P57771 other isoform, or with tags, fused parts or gaps): as the sequence (P57771 other isoform, or with tags, fused parts or gaps C107S) above, with S107C counted along it
107C RGS8 (C160S), sequence (P57771 other isoform, or with tags, fused parts or gaps C160S): as the sequence (P57771 other isoform, or with tags, fused parts or gaps C107S) above, with S107C, C160S counted along it

In the case of `Cc1ccc(-n2sc(=O)n(Cc3ccc(F)cc3)c2=O)cc1` [CCG-50014, 4-[(4-fluorophenyl)methyl]-2-(4-methylphenyl)-1,2,4-thiadiazolidine-3,5-dione], the IC50 at RGS8 (Table 2, mean of two independent FCPIA experiments, read-out: RGS8 IC50) turned out to be 1.1 µM; at 160C RGS8 (C107S) (FIG. 6), 0.71 µM; against 107C RGS8 (C160S) (FIG. 6), 46.5 µM. The Ki on RGS8 (read-out: experimentally derived Ki value) was 0.3 µM. Also, in the data set on δ-opioid receptor (100 nM SNC-80 + 100 μM CCG-50014), the “inhibition of forskolin-stimulated adenylate cyclase by SNC-80 with compound” value is reported as 44%. Further, the “effect on forskolin-stimulation of cAMP production” value with δ-opioid receptor (100 μM) is on record as “no effect”. For the same compound, the inhibition at 20 µM at 160C RGS8 (C107S) (20 μM, all time points, read-out: irreversible inhibition of 160C RGS8) is around 50%; on 107C RGS8 (C160S) (20 μM, all time points, read-out: irreversible inhibition of 107C RGS8), around 20%. In addition, in the data set with HEK-293 cells, the “cell viability (WST-1)” value is reported as “did not reduce cell viability below control levels”. The compound also registered a solubility in the data set “Solubility experiments” of around 100 µM (≈ 31.6 µg/mL).
